Reference: patent publication US20110021565A1, “PIPERIDINE DERIVATIVES AS NK3 ANTAGONISTS” (priority 2007, published 2011)
Read-outs that look alike come from different tables or passages of the source.

Molecular target: T1, recombinant human NK3 receptor (Homo sapiens, UniProt P29371)
T1 construct: expressed in transfected cells; host or cells: HEK293 cells, transient expression; membrane preparation
T1 sequence (P29371 1-465): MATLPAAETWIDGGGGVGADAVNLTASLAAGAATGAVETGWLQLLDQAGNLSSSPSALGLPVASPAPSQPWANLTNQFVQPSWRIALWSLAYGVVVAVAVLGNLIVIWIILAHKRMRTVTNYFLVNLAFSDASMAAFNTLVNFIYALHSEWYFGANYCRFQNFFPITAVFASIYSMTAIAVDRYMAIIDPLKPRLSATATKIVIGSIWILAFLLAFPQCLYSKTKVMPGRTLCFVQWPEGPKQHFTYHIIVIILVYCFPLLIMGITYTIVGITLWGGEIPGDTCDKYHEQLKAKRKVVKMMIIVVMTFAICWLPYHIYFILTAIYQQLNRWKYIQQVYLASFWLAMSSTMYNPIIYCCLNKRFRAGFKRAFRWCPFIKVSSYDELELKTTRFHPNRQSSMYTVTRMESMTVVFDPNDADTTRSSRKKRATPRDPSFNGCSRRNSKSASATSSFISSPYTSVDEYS
Assay: [3H]SR142801 competition binding assay
In short: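 Ki derived by Cheng-Prusoff from Hill-fitted IC50 curves, duplicates, 10 μM SB222200 defining nonspecific binding. Radioligand used at KD concentration against compound at 0.0003-10 μM; transiently transfected HEK293 membranes, 5 μg/well, 75 min room temperature, Tris-HCl/MnCl2/phosphoramidon/BSA pH 7.4. Filter-bound counts read by scintillation.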

[1] = [3H]SR142801, membranes of HEK293 cells transiently expressing recombinant human NK3 receptor, read-out: hNK3 Ki
[2] = representative compounds, [3H]SR142801, HEK293 membranes, human NK3 receptor, read-out: Ki NK3 h

Compound | Ki [1] | Ki [2]
CN(Cc1cccc(C(F)(F)F)c1)C(=O)C(CCN1CCC(NS(C)(=O)=O)CC1)c1ccc(Cl)c(Cl)c1 (stereo not shown) [Example 40, 2-(3,4-Dichloro-phenyl)-4-(4-methanesulfonyl-amino-piperidin-1-yl)-N-methyl-N-(3-trifluoromethyl-benzyl)-butyramide] | 280 nM | 
CC(NC(=O)C(C)(CCN1CCC(N2CCCC2=O)CC1)c1ccc(Cl)c(Cl)c1)c1ccccc1 (stereo not shown) [Example 91, 2-(3,4-Dichloro-phenyl)-2-methyl-4-[4-(2-oxo-pyrrolidin-1-yl)-piperidin-1-yl]-N-(1-phenyl-ethyl)-butyramide] | 51.2 nM | 
CC(CCN1CCC(N2CCCC2=O)CC1)(C(=O)NCc1ccc(Cl)c(Cl)c1)c1ccc(Cl)c(Cl)c1 (stereo not shown) [Example 83, N-(3,4-Dichloro-benzyl)-2-(3,4-dichloro-phenyl)-2-methyl-4-[4-(2-oxo-pyrrolidin-1-yl)-piperidin-1-yl]-butyramide] | 2.3 nM | 2.3 nM
CN(Cc1ccc(C(F)(F)F)c(F)c1)C(=O)C(F)(CCN1CCC(NS(C)(=O)=O)CC1)c1ccc(Cl)c(Cl)c1 (stereo not shown) [Example 61, 2-(3,4-Dichloro-phenyl)-2-fluoro-N-(3-fluoro-4-trifluoromethyl-benzyl)-4-(4-methanesulfonyl-amino-piperidin-1-yl)-N-methyl-butyramide] | 80 nM | 
CN(Cc1ccc(C(F)(F)F)c(F)c1)C(=O)C(C)(CCN1CCC(N(C)S(C)(=O)=O)CC1)c1ccc(Cl)c(Cl)c1 (stereo not shown) [Example 45, 2-(3,4-Dichloro-phenyl)-N-(3-fluoro-4-trifluoromethyl-benzyl)-4-[4-(methanesulfonyl-methyl-amino)-piperidin-1-yl]-2,N-dimethyl-butyramide] | 8.5 nM | 8.5 nM
CN(Cc1ccc(Cl)cc1)C(=O)C(C)(CCN1CCC(N2CCCC2=O)CC1)c1ccc(Cl)c(Cl)c1 (stereo not shown) [Example 84, N-(4-Chloro-benzyl)-2-(3,4-dichloro-phenyl)-2,N-dimethyl-4-[4-(2-oxo-pyrrolidin 1-yl)-piperidin-1-yl]-butyramide] | 2.1 nM | 2.1 nM
CC(=O)N(C)C1CCN(CCC(C)(C(=O)NCc2ccc(Cl)c(Cl)c2)c2ccc(Cl)c(Cl)c2)CC1 (stereo not shown) [Example 101, 4-[4-(Acetyl-methyl-amino)-piperidin-1-yl]-N-(3,4-dichloro-benzyl)-2-(3,4-dichloro-phenyl)-2-methyl-butyramide] | 6.8 nM | 6.8 nM
CC(=O)NC1CCN(CCC(C)(C(=O)N[C@@H](CO)c2ccc(Cl)cc2)c2ccc(Cl)c(Cl)c2)CC1 (single isomer, unassigned; diastereoisomer 1) [Example 156, 4-(4-Acetylamino-piperidin-1-yl)-N-[1-(4-chloro-phenyl)-2-hydroxy-ethyl]-2-(3,4-dichloro-phenyl)-2-methyl-butyramide (diastereoisomer 1)] | 50.5 nM | 
CC(NC(=O)C(C)(CCN1CCC(NS(C)(=O)=O)CC1)c1ccc(Cl)c(Cl)c1)c1ccc(Cl)cc1 (stereo not shown) [Example 16, N-[1-(4-Chloro-phenyl)-ethyl]-2-(3,4-dichloro-phenyl)-4-(4-methanesulfonyl-amino-piperidin-1-yl)-2-methyl-butyramide] | 173 nM | 
CN(Cc1cccc(F)c1)C(=O)C(CCN1CCC(NS(C)(=O)=O)CC1)c1ccc(Cl)c(Cl)c1 (stereo not shown) [Example 43, 2-(3,4-Dichloro-phenyl)-N-(3-fluoro-benzyl)-4-(4-methanesulfonyl-amino-piperidin-1-yl)-N-methyl-butyramide] | 254 nM | 
CN(C1CCN(CCC(C)(C(=O)NCc2ccccc2)c2ccc(Cl)c(Cl)c2)CC1)S(C)(=O)=O (stereo not shown) [Example 52, N-Benzyl-2-(3,4-dichloro-phenyl)-4-[4-(methanesulfonyl-methyl-amino)-piperidin-1-yl]-2-methyl-butyramide] | 64.8 nM | 
CN(Cc1ccc(C(F)(F)F)c(F)c1)C(=O)C(C)(CCN1CCC(N2CCCC2=O)CC1)c1ccc(Cl)c(Cl)c1 (stereo not shown) [Example 81, 2-(3,4-Dichloro-phenyl)-N-(3-fluoro-4-trifluoromethyl-benzyl)-2,N-dimethyl-4-[4-(2-oxo-pyrrolidin-1-yl)-piperidin-1-yl]-butyramide] | 3 nM | 3 nM
CC(=O)N(C)C1CCN(CCC(C)(C(=O)N[C@H](CO)c2ccc(Cl)c(Cl)c2)c2ccc(Cl)c(Cl)c2)CC1 (single isomer, unassigned; diastereoisomer 2) [Example 110, 4-[4-(Acetyl-methyl-amino)-piperidin-1-yl]-2-(3,4-dichloro-phenyl)-N-[1-(3,4-dichloro-phenyl)-2-hydroxy-ethyl]-2-methyl-butyramide; diastereoisomer 2] | 110 nM | 
CCCN(C(C)=O)C1CCN(CCC(C)(C(=O)N[C@@H](CO)c2ccc(F)cc2)c2ccc(Cl)c(Cl)c2)CC1 (single isomer, unassigned; epimer 1) [Example 162] | 0.5 nM | 0.5 nM
CC(CCN1CCC(NS(C)(=O)=O)CC1)(C(=O)NCc1cccc(OC(F)F)c1)c1ccc(Cl)c(Cl)c1 (stereo not shown) [Example 12, 2-(3,4-Dichloro-phenyl)-N-(3-difluoromethoxy-benzyl)-4-(4-methanesulfonyl-amino-piperidin-1-yl)-2-methyl-butyramide] | 309 nM | 
CN(Cc1ccc(-c2ccncc2)cc1)C(=O)C(C)(CCN1CCC(NS(C)(=O)=O)CC1)c1ccc(Cl)c(Cl)c1 (stereo not shown) [Example 20, 2-(3,4-Dichloro-phenyl)-4-(4-methanesulfonyl-amino-piperidin-1-yl)-2,N-dimethyl-N-(4-pyridin-4-yl-benzyl)-butyramide] | 203 nM | 
CC(=O)N(C)C1CCN(CCC(C)(C(=O)N[C@H](CO)c2ccccc2)c2ccc(Cl)c(Cl)c2)CC1 (stereo partly drawn) [Example 133, 4-[4-(Acetyl-methyl-amino)-piperidin-1-yl]-2-(3,4-dichloro-phenyl)-N-((S)-2-hydroxy-1-phenyl-ethyl)-2-methyl-butyramide] | 526 nM | 
CC(=O)N(C)C1CCN(CCC(C)(C(=O)N[C@H](CO)c2ccc(F)cc2)c2ccc(Cl)c(Cl)c2)CC1 (single isomer, unassigned; diastereoisomer 2) [Example 139, 4-[4-(Acetyl-methyl-amino)-piperidin-1-yl]-2-(3,4-dichloro-phenyl)-N-[1-(4-fluoro-phenyl)-2-hydroxy-ethyl]-2-methyl-butyramide (diastereoisomer 2)] | 141 nM | 
CN(Cc1ccc(C(F)(F)F)nc1)C(=O)C(C)(CCN1CCC(NS(C)(=O)=O)CC1)c1ccc(Cl)c(Cl)c1 (stereo not shown) [Example 31, 2-(3,4-Dichloro-phenyl)-4-(4-methanesulfonyl-amino-piperidin-1-yl)-2,N-dimethyl-N-(6-trifluoromethyl-pyridin-3-ylmethyl)-butyramide] | 500 nM | 
CN(C)c1ccc(CNC(=O)C(C)(CCN2CCC(NS(C)(=O)=O)CC2)c2ccc(Cl)c(Cl)c2)cc1 (stereo not shown) [Example 7, 2-(3,4-Dichloro-phenyl)-N-(4-dimethylamino-benzyl)-4-(4-methanesulfonyl-amino-piperidin-1-yl)-2-methyl-butyramide] | 621 nM | 
CN(Cc1ccc(Cl)c(C(F)(F)F)c1)C(=O)C(C)(CCN1CCC(N2CCCC2=O)CC1)c1ccc(Cl)c(Cl)c1 (stereo not shown) [Example 85, N-(4-Chloro-3-trifluoromethyl-benzyl)-2-(3,4-dichloro-phenyl)-2,N-dimethyl-4-[4-(2-oxo-pyrrolidin-1-yl)-piperidin-1-yl]-butyramide] | 1.4 nM | 1.4 nM
